Legend:
Format in all cases: in vivo
[1] = tested on: Abutilon theophrasti; assay: Herbicidal pre-emergence action (greenhouse pots), ABUTH; settings: 1280 g/ha, visual scoring after about 3 weeks vs untreated controls
Source text: (§1) In the examples and tables below, the following abbreviations are used: • Undesired Plants/Weeds: • ABUTH: Abutilon theophrasti • AGSTE: Agrostis tenuis • AMARE Amaranthus retroflexus • ECHCG: Echinochloa crus-galli • LOLRI: Lolium rigidum • MATIN: Matricaria inodora • POAAN: Poa annua • SETVI: Setaria viridis • STEME: Stellaria media A. Herbicidal Early Post-Emergence Action Seeds of mono- and dicotyledonous weed plants were placed in plastic pots in sandy loam soil (doubly sown with one species each of mono- or dicotyledonous weed plants per pot) and covered with soil. The compounds of the invention, formulated in the form of wettable powders (WP) or as emulsion concentrates (EC), were then applied onto the surface of the covering soil as aqueous suspension or emulsion with addition of 0.5% additive at a water application rate of 600 liters per hectare (converted). After the treatment, the pots were placed in a greenhouse and kept under good growth conditions for the test plants. After about 3 weeks, the effect of the preparations was scored visually in comparison with untreated controls as percentages. For example, 100% activity=the plants have died, 0% activity=like untreated control plants. Tables C1-C8 below show the effects of selected compounds of the general formula (I) according to Table 1 above on various harmful plants and an application rate corresponding to 1280 g/ha, which were obtained by the experimental procedure mentioned above.

[2] = tested on: Setaria viridis; assay: Herbicidal pre-emergence action (greenhouse pots), SETVI; settings: 1280 g/ha, visual scoring after about 3 weeks vs untreated controls
Outline: (§2)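 Pre-emergence soil-surface spray at 1280 g/ha of WP- or EC-formulated compound with 0.5% additive and 600 L/ha water. Assessment after about 3 weeks in the greenhouse, as visual percent activity where 100% means plants died.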

[3] = tested on: Stellaria media; assay: Herbicidal pre-emergence action (greenhouse pots), STEME; settings: 1280 g/ha, visual scoring after about 3 weeks vs untreated controls
Outline: as §2

[4] = tested on: Lolium rigidum; assay: Herbicidal pre-emergence action (greenhouse pots), LOLRI; settings: 1280 g/ha, visual scoring after about 3 weeks vs untreated controls
Source text: as §1

[5] = tested on: Poa annua; assay: Herbicidal early post-emergence action (96-well microtiter plates), POAAN; settings: 1900 g/ha, scored 9 to 12 days after treatment, 100% = plants have died, 0% = like untreated control plants
Outline: (§3)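 Weed seeds grown in quartz sand in 96-well microtiter plates in a climate chamber and treated at the cotyledon stage, 5 to 7 days after sowing, with EC formulations at 2200 L/ha water and a rate equivalent to 1900 g/ha. Visual scoring after 9 to 12 days against untreated controls (0% = control, 100% = dead).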

[6] = tested on: Stellaria media; assay: Herbicidal post-emergence action (greenhouse pots), STEME; settings: 1280 g/ha, visual rating about 3 weeks after treatment vs untreated controls
Outline: (§4)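 Weeds sown in sandy loam in greenhouse pots were sprayed at the one-leaf stage, 2 to 3 weeks after sowing, with WP or EC formulations in water plus 0.5% additive at 600 L/ha, at a rate corresponding to 1280 g/ha. Damage was rated visually about 3 weeks later versus untreated controls (0% none, 100% dead).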

[7] = tested on: Echinochloa crus-galli; assay: Herbicidal post-emergence action (greenhouse pots), ECHCG; settings: 1280 g/ha, rated after about 3 weeks, 100% = plants have died, 0% = like untreated control plants
Outline: as §4

[8] = tested on: Poa annua; assay: Herbicidal pre-emergence action (greenhouse pots), POAAN; settings: 1280 g/ha, visual scoring after about 3 weeks vs untreated controls
Outline: as §2

[9] = tested on: Amaranthus retroflexus; assay: Herbicidal pre-emergence action (greenhouse pots), AMARE; settings: 1280 g/ha, visual scoring after about 3 weeks vs untreated controls
Outline: as §2

[10] = tested on: Lolium rigidum; assay: Herbicidal post-emergence action (greenhouse pots), LOLRI; settings: 1280 g/ha, rated after about 3 weeks, 100% = plants have died, 0% = like untreated control plants
Source text: (§5) In the examples and tables below, the following abbreviations are used: • Undesired Plants/Weeds: • ABUTH: Abutilon theophrasti • AGSTE: Agrostis tenuis • AMARE Amaranthus retroflexus • ECHCG: Echinochloa crus-galli • LOLRI: Lolium rigidum • MATIN: Matricaria inodora • POAAN: Poa annua • SETVI: Setaria viridis • STEME: Stellaria media A. Herbicidal Early Post-Emergence Action Seeds of mono- and dicotyledonous weed plants were placed in plastic pots in sandy loam soil (doubly sown with in each case one species of mono- or dicotyledonous weed plants per pot), covered with soil and cultivated in a greenhouse under controlled growth conditions. 2 to 3 weeks after sowing, the test plants were treated at the one-leaf stage. The compounds of the invention, formulated in the form of wettable powders (WP) or as emulsion concentrates (EC), were applied onto the green parts of the plants as aqueous suspension or emulsion with addition of 0.5% additive at a water application rate of 600 liters per hectare (converted). After the test plants had been kept in the greenhouse under optimum growth conditions for about 3 weeks, the activity of the preparations was rated visually in comparison to untreated controls. For example, 100% activity=the plants have died, 0% activity=like untreated control plants. Tables B1-B8 below show the effects of selected compounds of the general formula (I) according to Table 1 above on various harmful plants and an application rate corresponding to 1280 g/ha, which were obtained by the experimental procedure mentioned above.

[11] = tested on: Echinochloa crus-galli; assay: Herbicidal pre-emergence action (greenhouse pots), ECHCG; settings: 1280 g/ha, visual scoring after about 3 weeks vs untreated controls
Outline: as §2

[12] = tested on: Abutilon theophrasti; assay: Herbicidal post-emergence action (greenhouse pots), ABUTH; settings: 1280 g/ha, visual rating about 3 weeks after treatment vs untreated controls
Outline: as §4

[13] = tested on: Agrostis tenuis; assay: Herbicidal early post-emergence action (96-well microtiter plates), AGSTE; settings: 1900 g/ha, scored 9 to 12 days after treatment, 100% = plants have died, 0% = like untreated control plants
Outline: as §3

[14] = tested on: Poa annua; assay: Herbicidal post-emergence action (greenhouse pots), POAAN; settings: 1280 g/ha, visual rating about 3 weeks after treatment vs untreated controls
Outline: as §4

[15] = tested on: Amaranthus retroflexus; assay: Herbicidal post-emergence action (greenhouse pots), AMARE; settings: 1280 g/ha, visual rating about 3 weeks after treatment vs untreated controls
Outline: as §4

[16] = tested on: Matricaria inodora; assay: Herbicidal pre-emergence action (greenhouse pots), MATIN; settings: 1280 g/ha, visual scoring after about 3 weeks vs untreated controls
Outline: as §2

[17] = tested on: Setaria viridis; assay: Herbicidal post-emergence action (greenhouse pots), SETVI; settings: 1280 g/ha, rated after about 3 weeks, 100% = plants have died, 0% = like untreated control plants
Outline: as §4

[18] = tested on: Matricaria inodora; assay: Herbicidal post-emergence action (greenhouse pots), MATIN; settings: 1280 g/ha, visual rating about 3 weeks after treatment vs untreated controls
Source text: as §5

Structure (SMILES) | herbicidal activity ABUTH [1] | herbicidal activity SETVI [2] | herbicidal activity STEME [3] | herbicidal activity LOLRI [4] | POAAN (herbicidal activity, scored visually in comparison to untreated controls) [5] | herbicidal activity STEME [6] | ECHCG (herbicidal activity, rated visually in comparison to untreated controls) [7] | herbicidal activity POAAN [8] | herbicidal activity AMARE [9] | LOLRI (herbicidal activity, rated visually in comparison to untreated controls) [10] | herbicidal activity ECHCG [11] | herbicidal activity ABUTH [12] | AGSTE (herbicidal activity, scored visually in comparison to untreated controls) [13] | herbicidal activity POAAN [14] | herbicidal activity AMARE [15] | herbicidal activity MATIN [16] | SETVI (herbicidal activity, rated visually in comparison to untreated controls) [17] | herbicidal activity MATIN [18]
N#Cc1cccc(Nc2ncc(F)cn2)c1Oc1ccc(F)cc1 [Example 1-267] | 100% | 100% | 100% | 100% | 100% | 100% | 100% | 100% | 100% | 90% | 100% | 100% | 100% | 100% | 100% | 100% | – | –
N#Cc1cccc(Nc2ncc(F)cn2)c1Oc1ccc(F)c(F)c1 [Example 1-272] | 100% | 100% | 100% | 100% | 100% | 100% | 100% | 100% | 100% | 100% | 100% | 100% | 100% | 100% | 100% | 100% | 100% | 100%
N#Cc1cccc(Nc2ncc(Cl)cn2)c1Oc1ccc(F)nc1 [Example 3-55] | 100% | 100% | 100% | 100% | 100% | 100% | – | 100% | 100% | 90% | 100% | 100% | 100% | 100% | 100% | 100% | 90% | 90%
N#Cc1cccc(Nc2ncc(F)cn2)c1Oc1ccc(F)nc1 [Example 3-53] | 100% | 100% | 100% | 100% | 100% | 100% | 100% | 100% | 100% | 90% | 100% | 100% | 100% | 100% | 100% | 100% | 90% | 90%
N#Cc1cccc(Nc2ncc(Cl)cn2)c1Oc1ccc(F)cc1 [Example 1-286] | 90% | 100% | 100% | 90% | 100% | 100% | 100% | 100% | 100% | 90% | – | 100% | 100% | 100% | 100% | 100% | 100% | –

Reference: patent publication US12415786B2, “Substituted 2-heteroarylaminobenzenes and the salts thereof and their use as herbicidal agents” (Bayer Aktiengesellschaft, priority 2019, dated 2025)
